From patent publication US10526314B2, “Hydroxyalkyl-substituted heteroaryltriazole derivatives and uses thereof” (BAYER AKTIENGESELLSCHAFT, priority 2016, dated 2020) come the findings set out here.

In general, IC50 refers to the concentration that inhibits the measured activity by half.

Assay [1] deals with T1, human V1a receptor (Homo sapiens, UniProt P37288).
T1 construct: expressed in transfected cells; host or cells: CHO K1 (ATCC), also stably transfected with a modified aequorin
As to the kind of experiment: Cellular in vitro assay for determining vasopressin receptor activity (V1a, aequorin luminescence). The class given is cell-based. The procedure:
(§1) B-1. Cellular In Vitro Assay for Determining Vasopressin Receptor Activity
(§2) The identification of agonists and antagonists of the V1a and V2 vasopressin receptors from humans, rats and dogs as well as the quantification of the activity of the compounds of the invention is carried out using recombinant cell lines. These cell lines originally derive from a hamster's ovary epithelial cell (Chinese Hamster Ovary, CHO K1, ATCC: American Type Culture Collection, Manassas, Va. 20108, USA). The test cell lines constitutively express the human, rat or dog V1a or V2 receptors. In case of the Gαq-coupled V1a receptors, cells are also stably transfected with a modified form of the calcium-sensitive photoproteins aequorin (human and rat V1a) or obelin (dog V1a), which, after reconstitution with the cofactor coelenterazine, emit light when there are increases in free calcium concentrations [Rizzuto R, Simpson A W, Brini M, Pozzan T, Nature 358, 325-327 (1992); Illarionov B A, Bondar V S, Illarionova V A, Vysotski E S, Gene 153 (2), 273-274 (1995)]. The resulting vasopressin receptor cells react to stimulation of the recombinantly expressed V1a receptors by intracellular release of calcium ions, which can be quantified by the resulting photoprotein luminescence. The Gs-coupled V2 receptors are stably transfected into cell lines expressing the gene for firefly luciferase under control of a CRE-responsible promoter. Activation of V2 receptors induces the activation of the CRE-responsive promoter via cAMP increase, thereby inducing the expression of firefly luciferase. The light emitted by photoproteins of V1a cell lines as well as the light emitted by firefly luciferase of V2 cell lines corresponds to the activation or inhibition of the respective vasopressin receptor. The bioluminescence of the cell lines is detected using a suitable luminometer [Milligan G, Marshall F, Rees S, Trends in Pharmacological Sciences 17, 235-237 (1996)].
Vasopressin V1a Receptor Cell Lines:
On the day before the assay, the cells are plated out in culture medium (DMEM/F12, 2% FCS, 2 mM glutamine, 10 mM HEPES, 5 μg/ml coelenterazine) in 384-well microtiter plates and kept in a cell incubator (96% humidity, 5% v/v CO2, 37° C.). On the day of the assay, test compounds in various concentrations are placed for 10 minutes in the wells of the microtiter plate before the agonist [Arg^8]-vasopressin at EC50 concentration is added. The resulting light signal is measured immediately in a luminometer.
(§3) Table 1A below lists individual IC50 values for the compounds of the invention (including racemic mixtures as well as separated enantiomers) that were obtained from cell lines transfected with the human V1a or V2 receptor: […]

Assay [2] deals with T2, human V2 receptor (Homo sapiens, UniProt P30518).
T2 construct: expressed in transfected cells; host or cells: CHO K1 (ATCC) expressing firefly luciferase under a CRE-responsive promoter
T2 sequence (P30518 whole entry): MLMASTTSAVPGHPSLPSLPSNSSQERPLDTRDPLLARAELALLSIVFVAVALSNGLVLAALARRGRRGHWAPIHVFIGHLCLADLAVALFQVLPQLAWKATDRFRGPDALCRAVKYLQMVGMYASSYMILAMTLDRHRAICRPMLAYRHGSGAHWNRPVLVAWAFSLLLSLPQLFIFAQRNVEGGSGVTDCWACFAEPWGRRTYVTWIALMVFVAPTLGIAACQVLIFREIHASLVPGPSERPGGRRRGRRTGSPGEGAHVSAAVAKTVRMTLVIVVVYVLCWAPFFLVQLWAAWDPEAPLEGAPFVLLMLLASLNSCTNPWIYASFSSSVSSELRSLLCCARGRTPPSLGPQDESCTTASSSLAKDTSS
The assay is described as follows: Cellular in vitro assay for determining vasopressin receptor activity (V2, CRE-luciferase). The class given is cell-based. Particulars: CHO cell line transfected with human V2 receptor; [Arg8]-vasopressin at EC50 concentration; read-out: IC50 hV2. As for the experimental part:
as §1, §2
Vasopressin V2 Receptor Cell Lines:
On the day before the assay, the cells are plated out in culture medium (DMEM/F12, 2% FCS, 2 mM glutamine, 10 mM HEPES) in 384-well microtiter plates and kept in a cell incubator (96% humidity, 5% v/v CO2, 37° C.). On the day of the assay, test compounds in various concentrations and the agonist [Arg^8]-vasopressin at EC50 concentration are added together to the wells, and plates are incubated for 3 hours in a cell incubator. Upon addition of the cell lysis reagent Triton™ and the substrate luciferin, luminescence of firefly luciferase is measured in a luminometer.
as §3

T1 sequence (P37288 whole entry): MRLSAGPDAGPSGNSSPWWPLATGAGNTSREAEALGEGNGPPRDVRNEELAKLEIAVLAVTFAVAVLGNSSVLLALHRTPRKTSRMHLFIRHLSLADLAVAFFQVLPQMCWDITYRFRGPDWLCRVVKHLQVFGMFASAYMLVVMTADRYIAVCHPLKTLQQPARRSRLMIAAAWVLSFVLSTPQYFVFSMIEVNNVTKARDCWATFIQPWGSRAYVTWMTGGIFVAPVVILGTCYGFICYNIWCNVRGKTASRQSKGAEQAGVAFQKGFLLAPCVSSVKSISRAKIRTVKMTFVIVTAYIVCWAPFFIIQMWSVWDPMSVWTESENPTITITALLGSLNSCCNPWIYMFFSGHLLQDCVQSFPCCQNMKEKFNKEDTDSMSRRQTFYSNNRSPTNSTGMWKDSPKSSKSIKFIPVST

`C[C@@H](O)c1nc(Cn2nc(-c3ccc(Cl)cc3)n(C[C@H](O)C(F)(F)F)c2=O)nn1-c1ncccc1C(F)(F)F` [Example 31, 5-(4-chlorophenyl)-2-({5-[(1R)-1-hydroxyethyl]-1-[3-(trifluoromethyl)pyridin-2-yl]-1H-1,2,4-triazol-3yl}methyl)-4-[(2S)-3,3,3-trifluoro-2-hydroxypropyl]-2,4-dihydro-3H-1,2,4-triazol-3-one]: the IC50 in assay [1] (CHO cell line transfected with human V1a receptor, [Arg8]-vasopressin at EC50 concentration, read-out: IC50 hV1a) stood at 4.9 nM; in assay [2] it was 170 nM. Also, in assay [1] (selectivity ratio IC50 hV2 / IC50 hV1a), the “ratio IC50 hV2/hV1a” value was found to be 35.1.
